According to EP2649091B1, “IMMUNE RESTRICTED PEPTIDES WITH INCREASED EFFICACY” (Stichting Het Nederlands Kanker Instituut, priority 2010, dated 2012):
“And” between values parts separate entries of the source, which are not always exact repeats. Identical values can stand only once.

How the values were obtained:
[1] = molecular target: HLA-A0201 (Homo sapiens, UniProt P04439, D140Y/D185E/D98H/E176V/E277Q/G131W/G231S/I119V/I121R/I166T/I218V/L300P/L318F/N151K/N90K/P208A/P217A/Q86G/Q94H/R138H/R169H/T345S); type: binding
[2] = tested on: SVYDFFVWL (TRP-2 180-188) reactive T cells; assay: T cell activation time course assay, IFNγ production (FACS), TRP-2 epitope; settings: for % CD8+ T cells producing IFN-γ peptide concentrations in picomolar 24H 0.5 / Geometric mean IFN-γ in arbitrary fluorescence units peptide concentrations in picomolar 24H 0.5 / % CD8+ T cells producing IFN-γ peptide concentrations in picomolar 48H 0.5 / Geometric mean IFN-γ in arbitrary fluorescence units peptide concentrations in picomolar 48H 0.5: peptide 0.5 pM; for % CD8+ T cells producing IFN-γ peptide concentrations in picomolar 24H 50 / Geometric mean IFN-γ in arbitrary fluorescence units peptide concentrations in picomolar 24H 50 / % CD8+ T cells producing IFN-γ peptide concentrations in picomolar 48H 50 / Geometric mean IFN-γ in arbitrary fluorescence units peptide concentrations in picomolar 48H 50: peptide 50 pM; for % CD8+ T cells producing IFN-γ peptide concentrations in picomolar 24H 5·10^3 / Geometric mean IFN-γ in arbitrary fluorescence units peptide concentrations in picomolar 24H 5·10^3 / % CD8+ T cells producing IFN-γ peptide concentrations in picomolar 48H 5·10^3 / Geometric mean IFN-γ in arbitrary fluorescence units peptide concentrations in picomolar 48H 5·10^3: peptide 5·10^3 pM
[3] = tested on: CD8+ T cells from Influenza A positive donors sorted using tetramers containing HLA A2.1::[…]; type: cell-based
[4] = tested on: CD8+ T cells from Influenza A positive donors sorted using tetramers containing HLA A2.1::[…]; type: cell-based; remark: listed apart in the source
[5] = tested on: HLA-A2::Mart-1(26-35) reactive T cells stimulated by T2 cells; assay: T cell activation time course assay, IFNγ production (FACS), Mart-1 epitope; type: cell-based; settings: for % CD8+ T cells producing IFN-γ 0H / Geometric mean IFN-γ in arbitrary fluorescence units 0H: time point 0H (basal); for % CD8+ T cells producing IFN-γ 2H / Geometric mean IFN-γ in arbitrary fluorescence units 2H: time point 2H; for % CD8+ T cells producing IFN-γ 4H / Geometric mean IFN-γ in arbitrary fluorescence units 4H: time point 4H; for % CD8+ T cells producing IFN-γ 24H / Geometric mean IFN-γ in arbitrary fluorescence units 24H: time point 24H; for % CD8+ T cells producing IFN-γ 24H / Geometric mean IFN-γ in arbitrary fluorescence units 24H / % CD8+ T cells producing IFN-γ 48H / Geometric mean IFN-γ in arbitrary fluorescence units 48H: free peptide washed away; for % CD8+ T cells producing IFN-γ 48H / Geometric mean IFN-γ in arbitrary fluorescence units 48H: time point 48H

[am-phg][2-AOC]YDFFVW[ALG] was tested, and the “% inhibition at T=4H and T=24H FP 4h” value [1] was 73%, the “% inhibition at T=4H and T=24H FP 24h” value [1] was 73% and the “% CD8+ T cells producing IFN-γ peptide concentrations in picomolar 24H 0.5” value [2] was 0%. For the same substance, the “Geometric mean IFN-γ in arbitrary fluorescence units peptide concentrations in picomolar 24H 0.5” value (from here on “Geometric mean IFN-γ … in picomolar 24H 0.5”) [2] was 98 arbitrary fluorescence units, the “% CD8+ T cells producing IFN-γ peptide concentrations in picomolar 24H 50” value [2] was 1% and the “Geometric mean IFN-γ in arbitrary fluorescence units peptide concentrations in picomolar 24H 50” value (“Geometric mean IFN-γ … in picomolar 24H 50” below) [2] was 69 arbitrary fluorescence units. The “% CD8+ T cells producing IFN-γ peptide concentrations in picomolar 24H 5·10^3” value [2] was 7%, the “Geometric mean IFN-γ in arbitrary fluorescence units peptide concentrations in picomolar 24H 5·10^3” value (“Geometric mean IFN-γ … in picomolar 24H 5·10^3” below) [2] was 79 arbitrary fluorescence units and the “% CD8+ T cells producing IFN-γ peptide concentrations in picomolar 48H 0.5” value [2] was 0%. For the same substance, the “Geometric mean IFN-γ in arbitrary fluorescence units peptide concentrations in picomolar 48H 0.5” value (from here on “Geometric mean IFN-γ … in picomolar 48H 0.5”) [2] was 76 arbitrary fluorescence units, the “% CD8+ T cells producing IFN-γ peptide concentrations in picomolar 48H 50” value [2] was 0% and the “Geometric mean IFN-γ in arbitrary fluorescence units peptide concentrations in picomolar 48H 50” value (“Geometric mean IFN-γ … in picomolar 48H 50” below) [2] was 80 arbitrary fluorescence units. For the same substance, the “% CD8+ T cells producing IFN-γ peptide concentrations in picomolar 48H 5·10^3” value [2] was 4% and the “Geometric mean IFN-γ in arbitrary fluorescence units peptide concentrations in picomolar 48H 5·10^3” value (“Geometric mean IFN-γ … in picomolar 48H 5·10^3” below) [2] was 71 arbitrary fluorescence units.

[am-phg][BUTALA]LGFVFTL was tested, and the “% inhibition at T=4H and T=24H FP 24h” value [1] was 96%, the “IC50 Ratio” value [1] was 3 and the “% Positive TCR recognition % TCR” value [3] was 3.32%. For the same substance, the “Geometric mean IFN in arbitrary fluorescence units Geo TCR” value [3] was 155 arbitrary fluorescence units, the “% CD8+ T cells producing IFN-γ % IFN” value [4] was 2.8% and the “Geometric mean IFN-γ in arbitrary fluorescence units Geo IFN” value [4] was 205 arbitrary fluorescence units.

In the case of [am-phg][CpALA]YDFFVW[PRG], the “% inhibition at T=4H and T=24H FP 4h” value [1] was 80%, the “% inhibition at T=4H and T=24H FP 24h” value [1] was 80% and the “% CD8+ T cells producing IFN-γ peptide concentrations in picomolar 24H 0.5” value [2] was 1%. For the same substance, the “Geometric mean IFN-γ … in picomolar 24H 0.5” value [2] was 94 arbitrary fluorescence units, the “% CD8+ T cells producing IFN-γ peptide concentrations in picomolar 24H 50” value [2] was 1% and the “Geometric mean IFN-γ … in picomolar 24H 50” value [2] was 69 arbitrary fluorescence units. For the same substance, the “% CD8+ T cells producing IFN-γ peptide concentrations in picomolar 24H 5·10^3” value [2] was 14%, the “Geometric mean IFN-γ … in picomolar 24H 5·10^3” value [2] was 95 arbitrary fluorescence units and the “% CD8+ T cells producing IFN-γ peptide concentrations in picomolar 48H 0.5” value [2] was 0%. The “Geometric mean IFN-γ … in picomolar 48H 0.5” value [2] was 76 arbitrary fluorescence units, the “% CD8+ T cells producing IFN-γ peptide concentrations in picomolar 48H 50” value [2] was 0% and the “Geometric mean IFN-γ … in picomolar 48H 50” value [2] was 66 arbitrary fluorescence units. For the same substance, the “% CD8+ T cells producing IFN-γ peptide concentrations in picomolar 48H 5·10^3” value [2] was 4% and the “Geometric mean IFN-γ … in picomolar 48H 5·10^3” value [2] was 76 arbitrary fluorescence units.

For [am-phg][NVA]AGIGILT[ALG], the “% inhibition at T=4H and T=24H FP 4h” value [1] was 58%, the “% inhibition at T=4H and T=24H FP 24h” value [1] was 63% and the “IC50 Ratio” value [1] was 2.5 and 2. The “% CD8+ T cells producing IFN-γ 0H” value ([5]; peptide 0.5 pM) was 0%, the “Geometric mean IFN-γ in arbitrary fluorescence units 0H” value ([5]; peptide 0.5 pM) was 112 arbitrary fluorescence units and the “% CD8+ T cells producing IFN-γ 2H” value ([5]; peptide 0.5 pM) was 26%. For the same substance, the “Geometric mean IFN-γ in arbitrary fluorescence units 2H” value ([5]; peptide 0.5 pM) was 221 arbitrary fluorescence units, the “% CD8+ T cells producing IFN-γ 4H” value ([5]; peptide 0.5 pM) was 29% and the “Geometric mean IFN-γ in arbitrary fluorescence units 4H” value ([5]; peptide 0.5 pM) was 350 arbitrary fluorescence units. The “% CD8+ T cells producing IFN-γ 24H” value ([5]; peptide 0.5 pM) was 17%, the “Geometric mean IFN-γ in arbitrary fluorescence units 24H” value ([5]; peptide 0.5 pM) was 163 arbitrary fluorescence units and the “% CD8+ T cells producing IFN-γ 48H” value ([5]; peptide 0.5 pM) was 5%. The “Geometric mean IFN-γ in arbitrary fluorescence units 48H” value ([5]; peptide 0.5 pM) was 111 arbitrary fluorescence units, the “% CD8+ T cells producing IFN-γ 0H” value ([5]; peptide 50 pM) was 0% and the “Geometric mean IFN-γ in arbitrary fluorescence units 0H” value ([5]; peptide 50 pM) was 109 arbitrary fluorescence units. The “% CD8+ T cells producing IFN-γ 2H” value ([5]; peptide 50 pM) was 28%, the “Geometric mean IFN-γ in arbitrary fluorescence units 2H” value ([5]; peptide 50 pM) was 247 arbitrary fluorescence units and the “% CD8+ T cells producing IFN-γ 4H” value ([5]; peptide 50 pM) was 33%. For the same substance, the “Geometric mean IFN-γ in arbitrary fluorescence units 4H” value ([5]; peptide 50 pM) was 715 arbitrary fluorescence units, the “% CD8+ T cells producing IFN-γ 24H” value ([5]; peptide 50 pM) was 29% and the “Geometric mean IFN-γ in arbitrary fluorescence units 24H” value ([5]; peptide 50 pM) was 400 arbitrary fluorescence units. The “% CD8+ T cells producing IFN-γ 48H” value ([5]; peptide 50 pM) was 20% and the “Geometric mean IFN-γ in arbitrary fluorescence units 48H” value ([5]; peptide 50 pM) was 280 arbitrary fluorescence units.

For [am-phg][NVA]YDFFVWL, the “% inhibition at T=4H and T=24H FP 4h” value [1] was 79%, the “% inhibition at T=4H and T=24H FP 24h” value [1] was 77% and the “% CD8+ T cells producing IFN-γ peptide concentrations in picomolar 24H 0.5” value [2] was 1%. For the same substance, the “Geometric mean IFN-γ … in picomolar 24H 0.5” value [2] was 59 arbitrary fluorescence units, the “% CD8+ T cells producing IFN-γ peptide concentrations in picomolar 24H 50” value [2] was 26% and the “% CD8+ T cells producing IFN-γ peptide concentrations in picomolar 24H 5·10^3” value [2] was 34%. The “Geometric mean IFN-γ … in picomolar 24H 5·10^3” value [2] was 326 arbitrary fluorescence units, the “% CD8+ T cells producing IFN-γ peptide concentrations in picomolar 48H 0.5” value [2] was 1% and the “Geometric mean IFN-γ … in picomolar 48H 0.5” value [2] was 78 arbitrary fluorescence units. The “% CD8+ T cells producing IFN-γ peptide concentrations in picomolar 48H 50” value [2] was 18%, the “% CD8+ T cells producing IFN-γ peptide concentrations in picomolar 48H 5·10^3” value [2] was 40% and the “Geometric mean IFN-γ … in picomolar 48H 5·10^3” value [2] was 255 arbitrary fluorescence units.

[am-phg][NVA]YDFFVW[PRG] was tested, and the “% inhibition at T=4H and T=24H FP 4h” value [1] was 88%, the “% inhibition at T=4H and T=24H FP 24h” value [1] was 80% and the “% CD8+ T cells producing IFN-γ peptide concentrations in picomolar 24H 0.5” value [2] was 0%. For the same substance, the “Geometric mean IFN-γ … in picomolar 24H 0.5” value [2] was 64 arbitrary fluorescence units, the “% CD8+ T cells producing IFN-γ peptide concentrations in picomolar 24H 50” value [2] was 7% and the “Geometric mean IFN-γ … in picomolar 24H 50” value [2] was 77 arbitrary fluorescence units. The “% CD8+ T cells producing IFN-γ peptide concentrations in picomolar 24H 5·10^3” value [2] was 26%, the “Geometric mean IFN-γ … in picomolar 24H 5·10^3” value [2] was 181 arbitrary fluorescence units and the “% CD8+ T cells producing IFN-γ peptide concentrations in picomolar 48H 0.5” value [2] was 0%. For the same substance, the “Geometric mean IFN-γ … in picomolar 48H 0.5” value [2] was 71 arbitrary fluorescence units, the “% CD8+ T cells producing IFN-γ peptide concentrations in picomolar 48H 50” value [2] was 1% and the “Geometric mean IFN-γ … in picomolar 48H 50” value [2] was 57 arbitrary fluorescence units. The “% CD8+ T cells producing IFN-γ peptide concentrations in picomolar 48H 5·10^3” value [2] was 23% and the “Geometric mean IFN-γ … in picomolar 48H 5·10^3” value [2] was 132 arbitrary fluorescence units.
